Consider 13 compounds from paper PMC8848307 (Journal of medicinal chemistry, 2019).

Assay [1] has as its target T1, STAT3 protein (Homo sapiens, UniProt P40763). The experiment in a line: Western blotting of STAT3 degradation in Molm-16 cells. In kind it is cell-based. A general note: A western blot detects proteins with antibodies after separation by electrophoresis.
The target in assay [2] is T1, STAT3 protein. As to the kind of experiment: Western blotting of STAT3 degradation in SU-DHL-1 cells. The format is cell-based. Particulars: SU-DHL-1 cells, ratio of DC50.

T1 sequence (P40763 whole entry): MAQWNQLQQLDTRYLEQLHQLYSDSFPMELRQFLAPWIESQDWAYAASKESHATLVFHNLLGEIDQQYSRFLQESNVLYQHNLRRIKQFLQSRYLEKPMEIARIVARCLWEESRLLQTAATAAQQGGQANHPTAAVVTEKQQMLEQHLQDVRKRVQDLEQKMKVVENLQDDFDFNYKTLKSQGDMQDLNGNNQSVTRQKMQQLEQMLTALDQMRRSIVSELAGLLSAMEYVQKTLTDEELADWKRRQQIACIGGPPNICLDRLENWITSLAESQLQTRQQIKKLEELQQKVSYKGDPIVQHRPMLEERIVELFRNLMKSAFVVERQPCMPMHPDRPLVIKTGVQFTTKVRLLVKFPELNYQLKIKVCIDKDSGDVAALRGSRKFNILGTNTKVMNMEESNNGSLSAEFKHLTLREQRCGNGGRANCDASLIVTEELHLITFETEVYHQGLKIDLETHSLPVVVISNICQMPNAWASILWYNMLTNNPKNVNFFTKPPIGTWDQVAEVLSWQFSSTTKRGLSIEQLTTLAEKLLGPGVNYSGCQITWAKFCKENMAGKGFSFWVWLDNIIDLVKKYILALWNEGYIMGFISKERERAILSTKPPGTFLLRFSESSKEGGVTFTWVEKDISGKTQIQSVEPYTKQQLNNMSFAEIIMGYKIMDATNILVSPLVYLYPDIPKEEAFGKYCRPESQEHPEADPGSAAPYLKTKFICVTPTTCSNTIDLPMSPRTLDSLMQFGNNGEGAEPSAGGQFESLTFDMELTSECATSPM

For `NC(=O)CC[C@H](NC(=O)[C@@H]1CC[C@@H]2CCN(C(=O)CCCC#Cc3cccc4c3CN(C3CCC(=O)NC3=O)C4=O)C[C@H](NC(=O)c3cc4cc(C(F)(F)P(=O)(O)O)ccc4[nH]3)C(=O)N21)C(=O)NC(c1ccccc1)c1ccccc1` (stereo partly drawn) [Compound 12, ((2-(((5S,8S,10aR)-8-(((S)-5-Amino-1-(benzhydrylamino)-1,5-dioxopentan-2-yl)carbamoyl)-3-(6-(2-(2,6-dioxopiperidin-3-yl)-1-oxoisoindolin-4-yl)hex-5-ynoyl)-6-oxodecahydropyrrolo-[1,2-a][1,5]diazocin-5-yl)carbamoyl)-1H-indol-5-yl)-difluoromethyl)phosphonic Acid], the “effect on the level of total STAT3 protein” value at STAT3 protein [1] (Molm-16, 4 h, concentrations up to 1 μM) is on record as “no effect”. Further, on STAT3 protein [1] (Molm-16, 4 h, up to / at 1 μM), the “effect on the level of pSTAT3^Y705 protein” value is “only minimally”.

Regarding `NC(=O)CC[C@H](NC(=O)[C@@H]1CC[C@@H]2CCN(C(=O)CCCCC#Cc3cccc4c3CN(C3CCC(=O)NC3=O)C4=O)C[C@H](NC(=O)c3cc4cc(C(F)(F)P(=O)(O)O)ccc4[nH]3)C(=O)N21)C(=O)NC(c1ccccc1)c1ccccc1` (stereo partly drawn) [Compound 13, ((2-(((5S,8S,10aR)-8-(((S)-5-Amino-1-(benzhydrylamino)-1,5-dioxopentan-2-yl)carbamoyl)-3-(7-(2-(2,6-dioxopiperidin-3-yl)-1-oxoisoindolin-4-yl)hept-6-ynoyl)-6-oxodecahydropyrrolo[1,2-a][1,5]diazocin-5-yl)carbamoyl)-1H-indol-5-yl)difluoromethyl)phosphonic Acid], the “times more potent than 12 in STAT3 degradation” value on STAT3 protein [1] (Molm-16 cells, ratio of DC50) is on record as 10 times.

As to `NC(=O)CC[C@H](NC(=O)[C@@H]1CC[C@@H]2CCN(C(=O)CCCCCCCCC#Cc3cccc4c3CN(C3CCC(=O)NC3=O)C4=O)C[C@H](NC(=O)c3cc4cc(C(F)(F)P(=O)(O)O)ccc4[nH]3)C(=O)N21)C(=O)NC(c1ccccc1)c1ccccc1` (stereo partly drawn) [Compound 16, ((2-(((5S,8S,10aR)-8-(((S)-5-Amino-1-(benzhydrylamino)-1,5-dioxopentan-2-yl)carbamoyl)-3-(11-(2-(2,6-dioxopiperidin-3-yl)-1-oxoisoindolin-4-yl)undec-10-ynoyl)-6-oxodecahydropyrrolo[1,2-a][1,5]diazocin-5-yl)carbamoyl)-1H-indol-5-yl)difluoromethyl)phosphonic Acid], the “times less potent than SD-36 in STAT3 degradation” value on STAT3 protein [1] (Molm-16 cells, ratio of DC50) is 2–3 times.

For the compound `NC(=O)CC[C@H](NC(=O)[C@@H]1CC[C@@H]2CCN(C(=O)OCCCCC#Cc3cccc4c3CN(C3CCC(=O)NC3=O)C4=O)C[C@H](NC(=O)c3cc4cc(C(F)(F)P(=O)(O)O)ccc4[nH]3)C(=O)N21)C(=O)NC(c1ccccc1)c1ccccc1` (stereo partly drawn) [Compound 18, ((2-(((5S,8S,10aR)-8-(((S)-5-Amino-1-(benzhydrylamino)-1,5-dioxopentan-2-yl)carbamoyl)-3-(((6-(2-(2,6-dioxopiperidin-3-yl)-1-oxoisoindolin-4-yl)hex-5-yn-1-yl)oxy)carbonyl)-6-oxodecahydropyrrolo[1,2-a][1,5]diazocin-5-yl)carbamoyl)-1H-indol-5-yl)difluoromethyl)phosphonic Acid], the “times less potent than SD-36 in STAT3 degradation” value on STAT3 protein [2] came to 2 times.

In the case of `NC(=O)CC[C@H](NC(=O)[C@@H]1CC[C@@H]2CCN(C(=O)c3cnn(CCCC#Cc4cccc5c4CN(C4CCC(=O)NC4=O)C5=O)c3)C[C@H](NC(=O)c3cc4cc(C(F)(F)P(=O)(O)O)ccc4[nH]3)C(=O)N21)C(=O)NC(c1ccccc1)c1ccccc1` (stereo partly drawn) [Compound 20, ((2-(((5S,8S,10aR)-8-(((S)-5-Amino-1-(benzhydrylamino)-1,5-dioxopentan-2-yl)carbamoyl)-3-(1-(5-(2-(2,6-dioxopiperidin-3-yl)-1-oxoisoindolin-4-yl)pent-4-yn-1-yl)-1H-pyrazole-4-carbonyl)-6-oxodecahydropyrrolo[1,2-a][1,5]diazocin-5-yl)-carbamoyl)-1H-indol-5-yl)difluoromethyl)phosphonic Acid], the “times less potent than SD-36 in STAT3 degradation” value on STAT3 protein [1] (Molm-16 cells, ratio of DC50) is 3–4 times.

`NC(=O)CC[C@H](NC(=O)[C@@H]1CC[C@@H]2CCN(C(=O)CCCn3cc(C#Cc4cccc5c4CN(C4CCC(=O)NC4=O)C5=O)cn3)C[C@H](NC(=O)c3cc4cc(C(F)(F)P(=O)(O)O)ccc4[nH]3)C(=O)N21)C(=O)NC(c1ccccc1)c1ccccc1` (stereo partly drawn) [Compound 21, ((2-(((5S,8S,10aR)-8-(((S)-5-Amino-1-(benzhydrylamino)-1,5-dioxopentan-2-yl)carbamoyl)-3-(4-(4-((2-(2,6-dioxopiperidin-3-yl)-1-oxoisoindolin-4-yl)ethynyl)-1H-pyrazol-1-yl)butanoyl)-6-oxodecahydropyrrolo[1,2-a][1,5]diazocin-5-yl)carbamoyl)-1H-indol-5-yl)difluoromethyl)phosphonic Acid]: on STAT3 protein [1] (Molm-16 cells, ratio of DC50), the “times less potent than SD-36 in STAT3 degradation” value is reported as 3–4 times.

Consider `NC(=O)CC[C@H](NC(=O)[C@@H]1CC[C@@H]2CCN(C(=O)N3CCC(CCC#Cc4cccc5c4CN(C4CCC(=O)NC4=O)C5=O)CC3)C[C@H](NC(=O)c3cc4cc(C(F)(F)P(=O)(O)O)ccc4[nH]3)C(=O)N21)C(=O)NC(c1ccccc1)c1ccccc1` (stereo partly drawn) [Compound 22, ((2-(((5S,8S,10aR)-8-(((S)-5-Amino-1-(benzhydrylamino)-1,5-dioxopentan-2-yl)carbamoyl)-3-(4-(4-(2-(2,6-dioxopiperidin-3-yl)-1-oxoisoindolin-4-yl)but-3-yn-1-yl)piperidine-1-carbon-yl)-6-oxodecahydropyrrolo[1,2-a][1,5]diazocin-5-yl)-carbamoyl)-1H-indol-5-yl)difluoromethyl)phosphonic Acid], for which the “times less potent than SD-36 in STAT3 degradation” value at STAT3 protein [1] (Molm-16 cells, ratio of DC50) is given as 3 times.

For `NC(=O)CC[C@H](NC(=O)[C@@H]1CC[C@@H]2CCN(C(=O)CCN3CCC(C#Cc4cccc5c4CN(C4CCC(=O)NC4=O)C5=O)CC3)C[C@H](NC(=O)c3cc4cc(C(F)(F)P(=O)(O)O)ccc4[nH]3)C(=O)N21)C(=O)NC(c1ccccc1)c1ccccc1` (stereo partly drawn) [Compound 23, ((2-(((5S,8S,10aR)-8-(((S)-5-Amino-1-(benzhydrylamino)-1,5-dioxopentan-2-yl)carbamoyl)-3-(3-(4-((2-(2,6-dioxopiperidin-3-yl)-1-oxoisoindolin-4-yl)ethynyl)piperidin-1-yl)propanoyl)-6-oxodecahydropyrrolo[1,2-a][1,5]diazocin-5-yl)carbamoyl)-1H-indol-5-yl)difluoromethyl)phosphonic Acid], the “times less potent than SD-36 in STAT3 degradation” value at STAT3 protein [1] (Molm-16 cells, ratio of DC50) is recorded as 40 times.

As to `NC(=O)CC[C@H](NC(=O)[C@@H]1CC[C@@H]2CCN(C(=O)CC(=O)N3CCC(C#Cc4cccc5c4CN(C4CCC(=O)NC4=O)C5=O)CC3)C[C@H](NC(=O)c3cc4cc(C(F)(F)P(=O)(O)O)ccc4[nH]3)C(=O)N21)C(=O)NC(c1ccccc1)c1ccccc1` (stereo partly drawn) [Compound 24, ((2-(((5S,8S,10aR)-8-(((S)-5-Amino-1-(benzhydrylamino)-1,5-dioxopentan-2-yl)carbamoyl)-3-(3-(4-((2-(2,6-dioxopiperidin-3-yl)-1-oxoisoindolin-4-yl)ethynyl)piperidin-1-yl)-3-oxopropanoyl)-6-oxodecahydropyrrolo[1,2-a][1,5]diazocin-5-yl)-carbamoyl)-1H-indol-5-yl)difluoromethyl)phosphonic Acid], the “times less potent than SD-36 in STAT3 degradation” value on STAT3 protein [1] (Molm-16 cells, ratio of DC50) is 6 times.

In the case of `NC(=O)CC[C@H](NC(=O)[C@@H]1CC[C@@H]2CCN(C(=O)CCCCCCCc3cccc4c3CN(C3CCC(=O)NC3=O)C4=O)C[C@H](NC(=O)c3cc4cc(C(F)(F)P(=O)(O)O)ccc4[nH]3)C(=O)N21)C(=O)NC(c1ccccc1)c1ccccc1` (stereo partly drawn) [Compound 25, ((2-(((5S,8S,10aR)-8-(((S)-5-Amino-1-(benzhydrylamino)-1,5-dioxopentan-2-yl)carbamoyl)-3-(8-(2-(2,6-dioxopiperidin-3-yl)-1-oxoisoindolin-4-yl)octanoyl)-6-oxodecahydropyrrolo-[1,2-a][1,5]diazocin-5-yl)-carbamoyl)-1H-indol-5-yl)-difluoromethyl)phosphonic Acid], on STAT3 protein [1] (Molm-16 cells, ratio of DC50), the “times less potent than SD-36 in STAT3 degradation” value was 2–3 times.

On to `NC(=O)CC[C@H](NC(=O)[C@@H]1CC[C@@H]2CCN(C(=O)CCCCCCNc3cccc4c3CN(C3CCC(=O)NC3=O)C4=O)C[C@H](NC(=O)c3cc4cc(C(F)(F)P(=O)(O)O)ccc4[nH]3)C(=O)N21)C(=O)NC(c1ccccc1)c1ccccc1` (stereo partly drawn) [Compound 26, ((2-(((5S,8S,10aR)-8-(((S)-5-Amino-1-(benzhydrylamino)-1,5-dioxopentan-2-yl)carbamoyl)-3-(7-((2-(2,6-dioxopiperidin-3-yl)-1-oxoisoindolin-4-yl)amino)heptanoyl)-6-oxodecahydropyrrolo[1,2-a][1,5]diazocin-5-yl)carbamoyl)-1H-indol-5-yl)difluoromethyl)phosphonic Acid], for which the “times less potent than SD-36 in STAT3 degradation” value at STAT3 protein [1] (Molm-16 cells, ratio of DC50) is 2–3 times.

Turning to `NC(=O)CC[C@H](NC(=O)[C@@H]1CC[C@@H]2CCN(C(=O)CCCCCC#Cc3ccc4c(c3)CN(C3CCC(=O)NC3=O)C4=O)C[C@H](NC(=O)c3cc4cc(C(F)(F)P(=O)(O)O)ccc4[nH]3)C(=O)N21)C(=O)NC(c1ccccc1)c1ccccc1` (stereo partly drawn) [Compound 28, ((2-(((5S,8S,10aR)-8-(((S)-5-Amino-1-(benzhydrylamino)-1,5-dioxopentan-2-yl)carbamoyl)-3-(8-(2-(2,6-dioxopiperidin-3-yl)-1-oxoisoindolin-5-yl)oct-7-ynoyl)-6-oxodecahydropyrrolo-[1,2-a][1,5]diazocin-5-yl)carbamoyl)-1H-indol-5-yl)difluoromethyl)phosphonic Acid], the “times less potent than SD-36 in STAT3 degradation” value at STAT3 protein [1] (Molm-16 cells, ratio of DC50) is listed as 5–10 times.

In the case of `NC(=O)CC[C@H](NC(=O)[C@@H]1CC[C@@H]2CCN(C(=O)CCCCCC#Cc3ccc4c(c3)C(=O)N(C3CCC(=O)NC3=O)C4)C[C@H](NC(=O)c3cc4cc(C(F)(F)P(=O)(O)O)ccc4[nH]3)C(=O)N21)C(=O)NC(c1ccccc1)c1ccccc1` (stereo partly drawn) [Compound 29, ((2-(((5S,8S,10aR)-8-(((S)-5-Amino-1-(benzhydrylamino)-1,5-dioxopentan-2-yl)carbamoyl)-3-(8-(2-(2,6-dioxopiperidin-3-yl)-3-oxoisoindolin-5-yl)oct-7-ynoyl)-6-oxodecahydropyrrolo-[1,2-a][1,5]diazocin-5-yl)carbamoyl)-1H-indo 1–5-yl)difluoromethyl)phosphonic Acid], on STAT3 protein [1] (Molm-16 cells, ratio of DC50), the “times less potent than SD-36 in STAT3 degradation” value is listed as 5–10 times.
